# Molecular target: human F508del-CFTR (Homo sapiens, UniProt P13569, DEL508-508)
# Assay: F508del-CFTR cell surface expression (corrector activity), DiscoveRx ß-galactosidase complementation chemiluminescence assay in recombinant U2OS cell line;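 note: U2OS cells co-expressing ProLink-tagged F508del-CFTR and a membrane-anchored enzyme acceptor, where more surface CFTR restores β-galactosidase activity measured by chemiluminescence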
# Conditions: for EC50: EC50, F508del-CFTR cell surface expression, geomean values; for Emax: U2OS, arithmetic mean values
# [1] = U2OS cell line, 16h compound incubation
# [2] = in relation to the Emax of the corrector lumacaftor (=100%), U2OS cell line, 16h compound incubation
# [3] = U2OS cells, 16h compound incubation
# [4] = in relation to Emax of corrector lumacaftor (=100%)
# Chain of human F508del-CFTR (P13569 with tags, fused parts or gaps DEL508-508): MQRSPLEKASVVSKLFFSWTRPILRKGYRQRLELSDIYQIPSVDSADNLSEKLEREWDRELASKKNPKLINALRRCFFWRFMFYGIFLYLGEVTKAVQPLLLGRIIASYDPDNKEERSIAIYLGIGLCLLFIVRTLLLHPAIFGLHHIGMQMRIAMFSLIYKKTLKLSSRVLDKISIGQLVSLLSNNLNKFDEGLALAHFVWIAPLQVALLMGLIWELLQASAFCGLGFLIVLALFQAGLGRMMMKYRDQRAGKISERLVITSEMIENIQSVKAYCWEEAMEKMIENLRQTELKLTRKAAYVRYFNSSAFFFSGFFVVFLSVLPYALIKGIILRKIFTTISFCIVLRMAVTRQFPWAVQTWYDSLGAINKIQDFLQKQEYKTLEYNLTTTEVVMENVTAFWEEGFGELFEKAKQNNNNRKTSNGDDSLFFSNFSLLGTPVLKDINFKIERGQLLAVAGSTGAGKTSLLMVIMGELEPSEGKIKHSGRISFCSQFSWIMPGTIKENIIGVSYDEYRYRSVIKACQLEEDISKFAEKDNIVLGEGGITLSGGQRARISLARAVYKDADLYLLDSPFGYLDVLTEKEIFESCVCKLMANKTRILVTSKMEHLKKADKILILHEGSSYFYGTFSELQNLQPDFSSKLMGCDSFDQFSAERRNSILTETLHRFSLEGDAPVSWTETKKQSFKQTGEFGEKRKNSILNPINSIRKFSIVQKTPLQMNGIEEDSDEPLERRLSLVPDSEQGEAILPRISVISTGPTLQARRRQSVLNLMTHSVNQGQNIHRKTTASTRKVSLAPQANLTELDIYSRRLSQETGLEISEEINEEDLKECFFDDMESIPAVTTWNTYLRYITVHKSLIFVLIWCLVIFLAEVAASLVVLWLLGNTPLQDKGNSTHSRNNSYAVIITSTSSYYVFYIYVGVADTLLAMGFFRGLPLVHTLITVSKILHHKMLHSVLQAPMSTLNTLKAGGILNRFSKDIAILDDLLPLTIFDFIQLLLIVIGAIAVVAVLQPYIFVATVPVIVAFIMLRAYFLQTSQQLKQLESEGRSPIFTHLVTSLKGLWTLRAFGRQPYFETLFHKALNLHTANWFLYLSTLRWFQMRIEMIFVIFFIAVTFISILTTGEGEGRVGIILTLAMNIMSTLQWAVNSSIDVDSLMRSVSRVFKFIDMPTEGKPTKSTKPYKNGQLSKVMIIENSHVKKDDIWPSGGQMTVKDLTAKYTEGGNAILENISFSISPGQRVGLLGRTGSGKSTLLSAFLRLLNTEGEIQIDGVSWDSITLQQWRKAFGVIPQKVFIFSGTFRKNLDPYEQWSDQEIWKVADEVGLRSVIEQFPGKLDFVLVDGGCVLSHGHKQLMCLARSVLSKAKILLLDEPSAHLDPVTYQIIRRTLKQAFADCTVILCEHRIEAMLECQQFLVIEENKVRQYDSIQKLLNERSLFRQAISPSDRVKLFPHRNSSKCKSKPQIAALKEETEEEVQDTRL
SMILES,EC50 [1] [nM],Emax [2] [%],EC50 [3] [nM],Emax [4] [%]
"CC(C)C[C@H]1C(=O)N2CCOC[C@@H]2C(=O)N[C@H](Cc2ccccc2)COc2ccc3ccccc3c2C(=O)N[C@H](C(=O)NCCc2ccc3c(c2)OCCO3)CC(=O)N1C [Example 39, (4aR,7R,18S,22S)-7-benzyl-N-(2-(2,3-dihydrobenzo[b][1,4]dioxin-6-yl)ethyl)-22-isobutyl-21-methyl-5,16,20,23-tetraoxo-1,2,4,4a,5,6,7,8,16,17,18,19,20,21,22,23-hexadecahydronaphtho[1,2-p][1,4]oxazino[3,4-f][1]oxa[4,7,10,14]tetraazacycloheptadecine-18-carboxamide]",415,450,–,–
"COc1cc2c(cc1OC)C(=O)N[C@H](C(=O)NCCc1ccc3c(c1)OCO3)CC(=O)N(C)[C@@H](CC(C)C)C(=O)N(C[C@H]1CCCCO1)CC(=O)N[C@H](Cc1ccccc1)CO2 [Example 159, (3R,9S,13S)-N-(2-(benzo[d][1,3]dioxol-5-yl)ethyl)-3-benzyl-9-isobutyl-17,18-dimethoxy-10-methyl-5,8,11,15-tetraoxo-7-(((R)-tetrahydro-2H-pyran-2-yl)methyl)-2,3,4,5,6,7,8,9,10,11,12,13,14,15-tetradecahydrobenzo[p][1]oxa[4,7,10,14]tetraazacycloheptadecine-13-carboxamide]",385,100,–,–
"COc1cccc(CCNC(=O)[C@@H]2CC(=O)N(C)[C@@H](CC(C)C)C(=O)N3CCN(S(=O)(=O)Cc4ccccc4)C[C@@H]3C(=O)N[C@H](Cc3ccccc3)COc3ccc4ccccc4c3C(=O)N2)c1 [Example 736, (4aR,7R,18S,22S)-7-benzyl-3-(benzylsulfonyl)-22-isobutyl-N-(3-methoxyphenethyl)-21-methyl-5,16,20,23-tetraoxo-2,3,4,4a,5,6,7,8,16,17,18,19,20,21,22,23-hexadecahydro-1H-naphtho[1,2-p]pyrazino[2,1-f][1]oxa[4,7,10,14]tetraazacycloheptadecine-18-carboxamide]",–,–,153,286
"COc1cccc(CCNC(=O)[C@@H]2CC(=O)N(C)[C@@H](CC(C)C)C(=O)N3CCCC[C@@H]3C(=O)N[C@H](Cc3ccccc3)COc3ccc(OC)cc3C(=O)N2)c1 [Example 587, (7S,11S,20R,22aR)-20-benzyl-7-isobutyl-15-methoxy-N-(3-methoxyphenethyl)-8-methyl-6,9,13,22-tetraoxo-1,3,4,6,7,8,9,10,11,12,13,19,20,21,22,22a-hexadecahydro-2H-benzo[p]pyrido[2,1-f][1]oxa[4,7,10,14]tetraazacycloheptadecine-11-carboxamide]",–,–,414,106
"COc1nccc2c1C(=O)N[C@H](C(=O)NCCc1cc(C3CC3)no1)CC(=O)N(C)[C@@H](CC(C)C)C(=O)N1CC[C@H](c3ccccc3)C[C@H]1C(=O)N[C@H](Cc1ccccc1)CO2 [Example 670, (7S,11S,17aS,20R)-20-benzyl-N-(2-(3-cyclopropylisoxazol-5-yl)ethyl)-11-isobutyl-4-methoxy-10-methyl-5,9,12,18-tetraoxo-16-phenyl-5,6,7,8,9,10,11,12,15,16,17,17a,18,19,20,21-hexadecahydro-14H-dipyrido[2,1-f:3′,4′-p][1]oxa[4,7,10,14]tetraazacycloheptadecine-7-carboxamide]",–,–,353,167
"CC(C)C[C@H]1C(=O)N(C)C2(CC2)C(=O)N[C@H](Cc2ccccc2)COc2cnc3ccc(F)cc3c2C(=O)N[C@H](C(=O)NCCc2ccc(-c3ncccn3)cc2)CC(=O)N1C [Example 137, (3′S,7′S,13′R)-13′-benzyl-20′-fluoro-7′-isobutyl-6′,9′-dimethyl-1′,5′,8′,11′-tetraoxo-N-(4-(pyrimidin-2-yl)phenethyl)-2′,3′,4′,5′,6′,7′,8′,9′,11′,12′,13′,14′-dodecahydro-1′H-spiro[cyclopropane-1,10′-[1]oxa[4,7,10,14]tetraazacycloheptadecino[17,16-c]quinoline]-3′-carboxamide]",254,311,–,–

# Reference: patent US20240208992A1, “MACROCYCLES AS CFTR MODULATORS” (Idorsia Pharmaceuticals Ltd, priority 2021, published 2024)
